Assay results from ChEMBL document CHEMBL5724806, “Unraveling interindividual differences and functional consequences of gut microbial metabolism of immunosuppressants” (2024).

Assays:
Format in all cases: ADME
[1] = (§1) The drug is tested on Lactobacillus paracasei strain: ATCC27092 for biotransformation under microaerobic condition. The drug concentrations were measured over 6 timepoints collected between 0 and 12 hours of incubation by liquid-chromatography-coupled mass spectrometry (LC–MS); design: dose 5 uM, timepoint 0, 1.5, 3, 6, 9, 12 hours; conditions: lacticaseibacillus paracasei, 5 µM
[2] = The drug is tested on Escherichia coli strain: DSM27469 for biotransformation under microaerobic condition. The drug concentrations were measured over 6 timepoints collected between 0 and 12 hours of incubation by liquid-chromatography-coupled mass spectrometry (LC–MS); design: dose 5 uM, timepoint 0, 1.5, 3, 6, 9, 12 hours; conditions: 5 µM
[3] = as §1, with “the gut metagenome community of P-02 with ENA study accession number: PRJEB31790” for “Lactobacillus paracasei strain: ATCC27092”, “7” for “6”; design: dose 5 uM, timepoint 0, 0.75, 1.5, 3, 6, 9, 12 hours; conditions: 5 µM
[4] = (§2) The drug is tested on Streptococcus sanguinis strain: DSM20567 for biotransformation under anaerobic condition. The drug concentrations were measured over 6 timepoints collected between 0 and 12 hours of incubation by liquid-chromatography-coupled mass spectrometry (LC–MS); design: dose 5 uM, timepoint 0, 1.5, 3, 6, 9, 12 hours; conditions: 5 µM
[5] = The drug is tested on Eubacterium hallii strain: DSM3353 for biotransformation under anaerobic condition. The drug concentrations were measured over 6 timepoints collected between 0 and 12 hours of incubation by liquid-chromatography-coupled mass spectrometry (LC–MS); design: dose 5 uM, timepoint 0, 1.5, 3, 6, 9, 12 hours; conditions: anaerobutyricum hallii, 5 µM
[6] = The drug is tested on Blautia hansenii strain: DSM20583 for biotransformation under anaerobic condition. The drug concentrations were measured over 6 timepoints collected between 0 and 12 hours of incubation by liquid-chromatography-coupled mass spectrometry (LC–MS); design: dose 5 uM, timepoint 0, 1.5, 3, 6, 9, 12 hours; conditions: 5 µM
[7] = The drug is tested on Escherichia coli strain: DSM27469 for biotransformation under anaerobic condition. The drug concentrations were measured over 6 timepoints collected between 0 and 12 hours of incubation by liquid-chromatography-coupled mass spectrometry (LC–MS); design: dose 5 uM, timepoint 0, 1.5, 3, 6, 9, 12 hours; conditions: 5 µM
[8] = The drug is tested on Collinsella aerofaciens strain: DSM3979 for biotransformation under anaerobic condition. The drug concentrations were measured over 6 timepoints collected between 0 and 12 hours of incubation by liquid-chromatography-coupled mass spectrometry (LC–MS); design: dose 5 uM, timepoint 0, 1.5, 3, 6, 9, 12 hours; conditions: 5 µM
[9] = The drug is tested on Gemella haemolysans strain: DSM107751 for biotransformation under anaerobic condition. The drug concentrations were measured over 6 timepoints collected between 0 and 12 hours of incubation by liquid-chromatography-coupled mass spectrometry (LC–MS); design: dose 5 uM, timepoint 0, 1.5, 3, 6, 9, 12 hours; conditions: 5 µM
[10] = The drug is tested on Gemella haemolysans strain: DSM107751 for biotransformation under microaerobic condition. The drug concentrations were measured over 6 timepoints collected between 0 and 12 hours of incubation by liquid-chromatography-coupled mass spectrometry (LC–MS); design: dose 5 uM, timepoint 0, 1.5, 3, 6, 9, 12 hours; conditions: 5 µM
[11] = The drug is tested on Alloscardovia omnicolens strain: DSM21503 for biotransformation under anaerobic condition. The drug concentrations were measured over 6 timepoints collected between 0 and 12 hours of incubation by liquid-chromatography-coupled mass spectrometry (LC–MS); design: dose 5 uM, timepoint 0, 1.5, 3, 6, 9, 12 hours; conditions: 5 µM
[12] = as §2, with “the gut metagenome community of A-05 with ENA study accession number: PRJEB31790” for “Streptococcus sanguinis strain: DSM20567”, “7” for “6”; design: dose 5 uM, timepoint 0, 0.75, 1.5, 3, 6, 9, 12 hours; conditions: 5 µM
[13] = as §2, with “the gut metagenome community of T-04 with ENA study accession number: PRJEB31790” for “Streptococcus sanguinis strain: DSM20567”, “7” for “6”; design: dose 5 uM, timepoint 0, 0.75, 1.5, 3, 6, 9, 12 hours; conditions: 5 µM
[14] = as §1, with “the gut metagenome community of A-02 with ENA study accession number: PRJEB31790” for “Lactobacillus paracasei strain: ATCC27092”, “7” for “6”; design: dose 5 uM, timepoint 0, 0.75, 1.5, 3, 6, 9, 12 hours; conditions: 5 µM
[15] = as §1, with “the gut metagenome community of A-08 with ENA study accession number: PRJEB31790” for “Lactobacillus paracasei strain: ATCC27092”, “7” for “6”; design: dose 5 uM, timepoint 0, 0.75, 1.5, 3, 6, 9, 12 hours; conditions: 5 µM
[16] = The drug is tested on Akkermansia muciniphila strain: DSM22959 for biotransformation under anaerobic condition. The drug concentrations were measured over 6 timepoints collected between 0 and 12 hours of incubation by liquid-chromatography-coupled mass spectrometry (LC–MS); design: dose 5 uM, timepoint 0, 1.5, 3, 6, 9, 12 hours; conditions: 5 µM
[17] = The drug is tested on Clostridium bolteae strain: DSM15670 for biotransformation under anaerobic condition. The drug concentrations were measured over 6 timepoints collected between 0 and 12 hours of incubation by liquid-chromatography-coupled mass spectrometry (LC–MS); design: dose 5 uM, timepoint 0, 1.5, 3, 6, 9, 12 hours; conditions: enterocloster bolteae, 5 µM
[18] = The drug is tested on Actinomyces graevenitzii strain: DSM15540 for biotransformation under microaerobic condition. The drug concentrations were measured over 6 timepoints collected between 0 and 12 hours of incubation by liquid-chromatography-coupled mass spectrometry (LC–MS); design: dose 5 uM, timepoint 0, 1.5, 3, 6, 9, 12 hours; conditions: 5 µM
[19] = The drug is tested on Clostridium ramosum strain: DSM1402 for biotransformation under anaerobic condition. The drug concentrations were measured over 6 timepoints collected between 0 and 12 hours of incubation by liquid-chromatography-coupled mass spectrometry (LC–MS); design: dose 5 uM, timepoint 0, 1.5, 3, 6, 9, 12 hours; conditions: thomasclavelia ramosa, 5 µM
[20] = as §1, with “the gut metagenome community of A-04 with ENA study accession number: PRJEB31790” for “Lactobacillus paracasei strain: ATCC27092”, “7” for “6”; design: dose 5 uM, timepoint 0, 0.75, 1.5, 3, 6, 9, 12 hours; conditions: 5 µM
[21] = The drug is tested on Roseburia intestinalis strain: DSM14610 for biotransformation under anaerobic condition. The drug concentrations were measured over 6 timepoints collected between 0 and 12 hours of incubation by liquid-chromatography-coupled mass spectrometry (LC–MS); design: dose 5 uM, timepoint 0, 1.5, 3, 6, 9, 12 hours; conditions: 5 µM
[22] = The drug is tested on Bifidobacterium longum strain: DSM20088 for biotransformation under anaerobic condition. The drug concentrations were measured over 6 timepoints collected between 0 and 12 hours of incubation by liquid-chromatography-coupled mass spectrometry (LC–MS); design: dose 5 uM, timepoint 0, 1.5, 3, 6, 9, 12 hours; conditions: 5 µM
[23] = The drug is tested on Streptococcus salivarius strain: DSM20560 for biotransformation under anaerobic condition. The drug concentrations were measured over 6 timepoints collected between 0 and 12 hours of incubation by liquid-chromatography-coupled mass spectrometry (LC–MS); design: dose 5 uM, timepoint 0, 1.5, 3, 6, 9, 12 hours; conditions: 5 µM
[24] = as §2, with “the gut metagenome community of P-01 with ENA study accession number: PRJEB31790” for “Streptococcus sanguinis strain: DSM20567”, “7” for “6”; design: dose 5 uM, timepoint 0, 0.75, 1.5, 3, 6, 9, 12 hours; conditions: 5 µM
[25] = The drug is tested on Bacteroides xylanisolvens strain: HM 722 for biotransformation under anaerobic condition. The drug concentrations were measured over 6 timepoints collected between 0 and 12 hours of incubation by liquid-chromatography-coupled mass spectrometry (LC–MS); design: dose 5 uM, timepoint 0, 1.5, 3, 6, 9, 12 hours; conditions: 5 µM
[26] = as §2, with “the gut metagenome community of A-10 with ENA study accession number: PRJEB31790” for “Streptococcus sanguinis strain: DSM20567”, “7” for “6”; design: dose 5 uM, timepoint 0, 0.75, 1.5, 3, 6, 9, 12 hours; conditions: 5 µM
[27] = The drug is tested on Actinomyces naeslundi strain: DSM43013 for biotransformation under anaerobic condition. The drug concentrations were measured over 6 timepoints collected between 0 and 12 hours of incubation by liquid-chromatography-coupled mass spectrometry (LC–MS); design: dose 5 uM, timepoint 0, 1.5, 3, 6, 9, 12 hours; conditions: actinomyces naeslundii, 5 µM
[28] = as §1, with “the gut metagenome community of P-04 with ENA study accession number: PRJEB31790” for “Lactobacillus paracasei strain: ATCC27092”, “7” for “6”; design: dose 5 uM, timepoint 0, 0.75, 1.5, 3, 6, 9, 12 hours; conditions: 5 µM
[29] = as §2, with “the gut metagenome community of P-02 with ENA study accession number: PRJEB31790” for “Streptococcus sanguinis strain: DSM20567”, “7” for “6”; design: dose 5 uM, timepoint 0, 0.75, 1.5, 3, 6, 9, 12 hours; conditions: 5 µM
[30] = The drug is tested on Gemella morbillorum strain: DSM20572 for biotransformation under anaerobic condition. The drug concentrations were measured over 6 timepoints collected between 0 and 12 hours of incubation by liquid-chromatography-coupled mass spectrometry (LC–MS); design: dose 5 uM, timepoint 0, 1.5, 3, 6, 9, 12 hours; conditions: 5 µM

Compound	Bacterial Biotransformation [1]	Bacterial Biotransformation [2]	Bacterial Biotransformation [3]	Bacterial Biotransformation [4]	Bacterial Biotransformation [5]	Bacterial Biotransformation [6]	Bacterial Biotransformation [7]	Bacterial Biotransformation [8]	Bacterial Biotransformation [9]	Bacterial Biotransformation [10]	Bacterial Biotransformation [11]	Bacterial Biotransformation [12]	Bacterial Biotransformation [13]	Bacterial Biotransformation [14]	Bacterial Biotransformation [15]	Bacterial Biotransformation [16]	Bacterial Biotransformation [17]	Bacterial Biotransformation [18]	Bacterial Biotransformation [19]	Bacterial Biotransformation [20]	further results
CNC(=C[N+](=O)[O-])NCCSCc1ccc(CN(C)C)o1 [RANITIDINE]	Compound NOT metabolized	Compound NOT metabolized	Compound NOT metabolized	Compound NOT metabolized	Compound NOT metabolized	Compound NOT metabolized	Compound NOT metabolized	Compound NOT metabolized	Compound NOT metabolized	Compound NOT metabolized	Compound NOT metabolized	Compound NOT metabolized	Compound NOT metabolized	Compound metabolized	Compound metabolized	Compound NOT metabolized	Compound NOT metabolized	Compound NOT metabolized	Compound NOT metabolized	Compound metabolized	Bacterial Biotransformation [21]: Compound NOT metabolized; Bacterial Biotransformation [22]: Compound NOT metabolized; Bacterial Biotransformation [23]: Compound NOT metabolized; Bacterial Biotransformation [24]: Compound metabolized; Bacterial Biotransformation [25]: Compound metabolized; Bacterial Biotransformation [26]: Compound NOT metabolized; Bacterial Biotransformation [27]: Compound NOT metabolized; Bacterial Biotransformation [28]: Compound NOT metabolized; Bacterial Biotransformation [29]: Compound metabolized; Bacterial Biotransformation [30]: Compound NOT metabolized
CCC(C)(C)C(=O)O[C@H]1C[C@@H](C)C=C2C=C[C@H](C)[C@H](CC[C@@H]3C[C@@H](O)CC(=O)O3)[C@H]21 [SIMVASTATIN]	Compound NOT metabolized	Compound NOT metabolized	Compound NOT metabolized	Compound NOT metabolized	Compound NOT metabolized	Compound NOT metabolized	Compound NOT metabolized	Compound NOT metabolized	Compound NOT metabolized	Compound NOT metabolized	Compound NOT metabolized	Compound NOT metabolized	Compound NOT metabolized	Compound metabolized	Compound NOT metabolized	Compound NOT metabolized	Compound NOT metabolized	Compound NOT metabolized	Compound NOT metabolized	Compound NOT metabolized	Bacterial Biotransformation [21]: Compound NOT metabolized; Bacterial Biotransformation [22]: Compound NOT metabolized; Bacterial Biotransformation [23]: Compound NOT metabolized; Bacterial Biotransformation [24]: Compound NOT metabolized; Bacterial Biotransformation [25]: Compound NOT metabolized; Bacterial Biotransformation [26]: Compound NOT metabolized; Bacterial Biotransformation [27]: Compound NOT metabolized; Bacterial Biotransformation [28]: Compound NOT metabolized; Bacterial Biotransformation [29]: Compound NOT metabolized; Bacterial Biotransformation [30]: Compound NOT metabolized
CO[C@H]1C[C@@H]2CC[C@@H](C)[C@@](O)(O2)C(=O)C(=O)N2CCCC[C@H]2C(=O)O[C@H]([C@H](C)C[C@@H]2CC[C@@H](O)[C@H](OC)C2)CC(=O)[C@H](C)/C=C(\C)[C@@H](O)[C@@H](OC)C(=O)[C@H](C)C[C@H](C)/C=C/C=C/C=C/1C [SIROLIMUS]	Compound NOT metabolized	Compound NOT metabolized	Compound NOT metabolized	Compound metabolized	Compound metabolized	Compound metabolized	Compound NOT metabolized	Compound metabolized	Compound metabolized	Compound NOT metabolized	Compound metabolized	Compound metabolized	Compound NOT metabolized	Compound metabolized	Compound metabolized	Compound NOT metabolized	Compound metabolized	Compound metabolized	Compound NOT metabolized	Compound metabolized	Bacterial Biotransformation [21]: Compound metabolized; Bacterial Biotransformation [22]: Compound metabolized; Bacterial Biotransformation [23]: Compound metabolized; Bacterial Biotransformation [24]: Compound NOT metabolized; Bacterial Biotransformation [25]: Compound NOT metabolized; Bacterial Biotransformation [26]: Compound metabolized; Bacterial Biotransformation [27]: Compound metabolized; Bacterial Biotransformation [28]: Compound NOT metabolized; Bacterial Biotransformation [29]: Compound NOT metabolized; Bacterial Biotransformation [30]: Compound metabolized
